Experimental data from US10787452B2 (Vertex Pharmaceuticals Incorporated, priority 2012, dated 2020).

System: HCT116 colorectal cancer cells
Assay: Cisplatin sensitization assay (96 h cell viability MTS);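 also: compound concentration needed to lower the Cisplatin-alone IC50 by a set fold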
Format: cell-based
Details: 96 h MTS, compound plus Cisplatin
How it was run: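 Test compound and cisplatin were added together as a full matrix of 2-fold serial dilutions, each from a top final concentration of 10 μM. Cells were incubated 96 h at 37° C in 5% CO2, then viability was read by MTS after a further 1 h incubation.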

Row | Structure (SMILES) | Cisplatin Sensitization Assay
1 | Nc1nn2cc(Cl)cnc2c1C(=O)Nc1cnccc1N1CCC(N2CCC3(COC3)C2)CC1 [I-N-99, N-(4-(4-(2-oxa-6-azaspiro[3.4]octan-6-yl)piperidin-1-yl)pyridin-3-yl)-2-amino-6-chloropyrazolo[1,5-a]pyrimidine-3-carboxamide] | +++ (Compounds with a Cisplatin sensitization value of <0.02 μM are marked with “+++.”)
2 | Nc1nn2cc(Cl)cnc2c1C(=O)Nc1cnccc1N1CCC(N2CC[S+]([O-])CC2)CC1 [I-N-100, 2-amino-6-chloro-N-(4-(4-(1-oxidothiomorpholino)piperidin-1-yl)pyridin-3-yl)pyrazolo[1,5-a]pyrimidine-3-carboxamide] | ++ (Compounds with a Cisplatin sensitization value >0.02 μM but <0.2 μM are marked with “++.”)
3 | Nc1nn2cc(Cl)cnc2c1C(=O)Nc1cnccc1N1CCC(N2CCn3cncc3C2)CC1 [I-N-101, 2-amino-6-chloro-N-(4-(4-(5,6-dihydroimidazo[1,5-a]pyrazin-7(8H)-yl)piperidin-1-yl)pyridin-3-yl)pyrazolo[1,5-a]pyrimidine-3-carboxamide] | ++ (Compounds with a Cisplatin sensitization value >0.02 μM but <0.2 μM are marked with “++.”)
4 | Nc1nn2cc(Cl)cnc2c1C(=O)Nc1cnccc1N1CCC(N2CCn3ccnc3C2)CC1 [I-N-102, 2-amino-6-chloro-N-(4-(4-(5,6-dihydroimidazo[1,2-a]pyrazin-7(8H)-yl)piperidin-1-yl)pyridin-3-yl)pyrazolo[1,5-a]pyrimidine-3-carboxamide] | ++ (Compounds with a Cisplatin sensitization value >0.02 μM but <0.2 μM are marked with “++.”)
5 | Nc1nn2cc(Cl)cnc2c1C(=O)Nc1cnccc1N1CCC(N2CCOCC2)CC1 [I-N-104, 2-amino-6-chloro-N-(4-(4-morpholinopiperidin-1-yl)pyridin-3-yl)pyrazolo[1,5-a]pyrimidine-3-carboxamide] | +++ (Compounds with a Cisplatin sensitization value of <0.02 μM are marked with “+++.”)
6 | Nc1nn2cc(Cl)cnc2c1C(=O)Nc1cnccc1N1CCC(N2CCCC2)CC1 [I-N-105, 2-amino-6-chloro-N-(4-(4-(pyrrolidin-1-yl)piperidin-1-yl)pyridin-3-yl)pyrazolo[1,5-a]pyrimidine-3-carboxamide] | +++ (Compounds with a Cisplatin sensitization value of <0.02 μM are marked with “+++.”)
7 | CN(C)C1CCN(C2CCN(c3ccncc3NC(=O)c3c(N)nn4cc(Cl)cnc34)CC2)C1 (stereo not shown) [I-N-106, 2-amino-6-chloro-N-(4-(4-(3-(dimethylamino)pyrrolidin-1-yl)piperidin-1-yl)pyridin-3-yl)pyrazolo[1,5-a]pyrimidine-3-carboxamide] | +++ (Compounds with a Cisplatin sensitization value of <0.02 μM are marked with “+++.”)
8 | COC1CN(C2CCN(c3ccncc3NC(=O)c3c(N)nn4cc(Cl)cnc34)CC2)C1 [I-N-107, 2-amino-6-chloro-N-(4-(4-(3-methoxyazetidin-1-yl)piperidin-1-yl)pyridin-3-yl)pyrazolo[1,5-a]pyrimidine-3-carboxamide] | +++ (Compounds with a Cisplatin sensitization value of <0.02 μM are marked with “+++.”)
9 | Nc1nn2cc(Cl)cnc2c1C(=O)Nc1cnccc1N1CCC(N2CC(F)(F)C2)CC1 [I-N-108, 2-amino-6-chloro-N-(4-(4-(3,3-difluoroazetidin-1-yl)piperidin-1-yl)pyridin-3-yl)pyrazolo[1,5-a]pyrimidine-3-carboxamide] | +++ (Compounds with a Cisplatin sensitization value of <0.02 μM are marked with “+++.”)
10 | Nc1nn2cc(Cl)cnc2c1C(=O)Nc1cnccc1N1CCC(N2CCC23COC3)CC1 [I-N-109, N-(4-(4-(6-oxa-1-azaspiro[3.3]heptan-1-yl)piperidin-1-yl)pyridin-3-yl)-2-amino-6-chloropyrazolo[1,5-a]pyrimidine-3-carboxamide] | +++ (Compounds with a Cisplatin sensitization value of <0.02 μM are marked with “+++.”)
